Measured values from patent publication US20170049845A1, “METHODS OF TREATING ALZHEIMER'S DISEASE, HUNTINGTON'S DISEASE, AUTISM, OR OTHER DISORDERS” (Northwestern University, priority 2011, published 2017).
Residues, ends and D or L forms follow the SMILES beside them.

Columns and labels:
autistic individuals = conditions: cited from earlier work
[1] = system: Schaffer collateral-CA1 synapses; assay: hAβ-induced impairment of LTP at Schaffer collateral-CA1 synapses in acute hippocampal slices; assay type: cell-based, rat; conditions: high-frequency Schaffer collateral stimulation 30 min later
Source text: FIG. 5 depicts rescue of Aβ impairment of long-term potentiation (LTP) of synaptic transmission at Schaffer collateral-CA1 synapses in hippocampal slices in presence of GLYX-13. A: Time course of the effect of pressure ejection of Aβ(1-42) into stratum radiatum of field CA1 (Aβ injections; 12 psi/100 ms; filled circles; n=10) on basal synaptic transmission and LTP induced by high-frequency stimulus trains (3×100 Hz/500 ms), compared to vehicle (TFE) injection (open circles; n=8). B: Time course of the effect of pressure ejection of Aβ(1-42) into stratum radiatum of field CA1 in the presence of 1 μM Glyx-13 (Aβ injections; 12 psi/100 ms; filled circles; n=8) on basal synaptic transmission and LTP induced by high-frequency stimulus trains (3×100 Hz/500 ms), compared to vehicle (TFE) injection (open circles; n=8). C: Time course of the effect of pressure ejection of Aβ(1-42) into stratum radiatum of field CA1 in the presence of 1 μM D-cycloserine (Aβ injections; 12 psi/100 ms; filled circles; n=7) on basal synaptic transmission and LTP induced by high-frequency stimulus trains (3×100 Hz/500 ms), compared to vehicle (TFE) injection (open circles; n=8). D: Time course of the effect of pressure ejection of Aβ(1-42) into stratum radiatum of field CA1 in the presence of 100 μM D-Serine (Aβ injections; 12 psi/100 ms; filled circles; n=8) on basal synaptic transmission and LTP induced by high-frequency stimulus trains (3×100 Hz/500 ms), compared to vehicle (TFE) injection (open circles; n=8). Each point in A, B and C is mean±SEM normalized fEPSP slope.
We pressure ejected hAβ in the absence or presence of Glyx-13, D-cycloserine or the full agonist D-serine, into the Schaffer collateral synaptic field in CA1 stratum radiatum of acute in vitro rat hippocampal slices and attempted to evoke LTP 30 min later. FIG. 5A illustrates that hAβ alone caused a significant reduction (˜20%) in the magnitude of LTP elicited by high-frequency Schaffer collateral stimulation.

CA1 pyramidal neurons = assay: Protection against human b-amyloid (1-42) toxicity in organotypic hippocampal slice cultures (propidium fluorescence); assay type: cell-based; conditions: 5 μg/ml hAβ, 24 hr after application
Source text: FIG. 4 depicts delayed neuronal death produced by Aβ(1-42) in organotypic hippocampal slice cultures upon application of GLYX-13; Mean±SEM propidium fluorescence 24 hr after bath application of Aβ(1-42) alone, versus Aβ(1-42) in the presence of indicated concentrations (μg/ml) of Glyx-13 (*, […], Student's t-test compared to Aβ alone).
To determine whether Glyx-13, by renormalizing activation of NMDA receptors, might protect against the toxicity of hAβ to susceptible neurons in a physiological network milieu, we compared the long-term effects of hAβ in the absence and presence of different concentrations of Glyx-13.

HD 51 CAG and WT rats = assay: Huntington's disease model, serial operant reversal task, phase 3 pseudo-random testing; assay type: in vivo, rat; conditions: subcutaneously 20 minutes prior to task
Method: HD 51 CAG and WT (wild type) rats are used in a Huntington's disease model study, testing cognition with serial operant reversal tasks. Rats are dosed according to the following schedule:
The animals are first placed in an acquisition trial. The acquisition trial is an 8-hour testing period where the animal is reinforced with a sucrose food pellet for a “correct” lever press after a variable interval time of 30 seconds. This task requires the animals to learn which lever needs to be activated to gain reinforcement. The time taken to identify the “correct” lever is measured, as well as the number of reinforcers earned, percentage of “correct” lever presses, and errors made (incorrect lever presses). The acquisition trial is performed with access to water ad libidum. […]
The testing session is conducted using a progressive FR schedule for 25 or 30 days. […] The response rate for the left and right lever is recorded, as well as the total number of lever presses for each side, the total number of lever presses combined for each side in a session, the percentage of “correct” lever presses (“correct” lever presses/left lever presses+right lever presses then multiplied by 100 to obtain a percentage), the total reinforcers earned, and the time to complete each session. The rats are given one day off before the second phase of testing begins, with only the weight of the rats being recorded. […]

low-line rats = assay: Conspecific play induced pro-social USVs in low-line rats (autism model); assay type: in vivo, rat; conditions: adolescent male low-line rats, 50 mg/kg s.c. 15 min before testing, vs vehicle, P<0.05
Method: FIG. 2 depicts Mean±SEM (A) rates of conspecific play induced pro-social USVs (frequency-modulated 50 kHz calls) in adolescent male low-line rats pretreated with vehicle (1 mg/ml sterile saline s.c.) or (B) GLYX-13 (50 mg/kg s.c.) […] before the start of testing using a within-subjects design. (C) Proportion of total conspecific play induced USVs that were monotonous (i.e., bandwidth less than 7 kHz; n=9 per group. *P<0.05 Fisher PLSD post hoc test, 2 tailed.
Core symptoms of autism (1) deficits in social emotions and motivations, 2) communication problems, and 3) a high incidence of motor abnormalities, especially repetitive behaviors) can be modeled in part in animals using the following behavioral measures, respectively: (1) reduced time spent in social contact; (2) reduced rates of pro-social vocalizations, and (3) disrupted ultrasonic vocalization patterns.
The proportion of total conspecific play induced USVs that were monotonous (i.e., bandwidth less than 7 kHz) is shown in FIG. 2C. n=9 per group. *P<0.05 Fisher PLSD post hoc test, 2 tailed.

Cc1nc2n(c(=O)c1CCN1CCC(c3noc4cc(F)ccc34)CC1)CCCC2 [risperidone]
hyperactivity and irritability symptoms (autistic individuals; autism): significantly decrease | inappropriate speech or social withdrawal (autistic individuals; autism): little to no effect | side effects (autistic individuals; autism): significant weight gain and sedative side effects

N[C@H](CO)C(=O)O [D-serine]
rescue of LTP after hAβ pressure ejection [1]: nor the full agonist D-serine (100M, FIG. 5D, open circles) was able to rescue LTP

N[C@@H]1CONC1=O [D-cycloserine]
social withdrawal (autistic individuals; autistic individuals (Posey et al., 2004)): significantly improved | rescue of LTP after hAβ pressure ejection ([1]; 1 μM bath-applied): neither the glycine site partial agonist D-cycloserine (1 μM, FIG. 5C, open circles) nor the full agonist D-serine (100M, FIG. 5D, open circles) was able to rescue LTP

C[C@@H](O)[C@H](N)C(=O)N1CCC[C@H]1C(=O)N1CCC[C@H]1C(=O)N[C@H](C(N)=O)[C@@H](C)O [GLYX-13, L-threonyl-L-prolyl-L-prolyl-L-threonine amide] (H-TPPT-NH2)
dose-response relation of neuroprotective potency (CA1 pyramidal neurons): U-shaped dose-response relation | percentage of correct lever presses vs saline injections (HD 51 CAG and WT rats; HD animals): higher percentage trends of correct lever presses | percentage of correct lever presses vs saline injections (HD 51 CAG and WT rats; WT animals): higher percentage trends of correct lever presses | rescue of LTP after hAβ pressure ejection ([1]; 1 μM bath-applied): LTP was restored to normal control levels | proportion of total USVs that are monotonous (bandwidth less than 7 kHz) (low-line rats): significantly decreased | rates of play inducing pro-social USVs (frequency-modulated 50 kHz calls) (low-line rats): significantly increased
